Target: SARM1 (Homo sapiens (Human), UniProt Q6SZW1)
Test: ARM-SAM-TIR SARM1 IC50 assay (NADase activity, NAD+ cleavage)
Assay type: biochemical
Details: ARM-SAM-TIR lysate 5 μg/mL, 2 h pre-incubation, 5 μM NAD+, RapidFire MS readout
Description: This Example describes an assay of ARM-SAM-TIR NADase activity and use of this assay to measure the efficacy of compounds of Formula I to block SARM1 mediated NAD+ cleavage. This assay was optimized in such a way as to characterize the efficacy of the compounds in Formula I to inhibit SARM1 activity and to calculate an IC50 value for each compound. This assay makes use of full length SARM1, which encompasses the ARM, SAM and TIR domains.
NRK1-HEK293T cells were seeded onto 150 cm^2 plates at 20×10^6 cells per plate. The next day, the cells were transfected with 15 μg ARM-SAM-TIR expression plasmid, SEQ ID NO: 1.
The cultures were supplemented with 1 mM NR at time of transfection to minimize toxicity from ARM-SAM-TIR overexpression. […] Protein concentration was determined by the Bicinchoninic (BCA) method and used to normalize lysate concentrations.
The enzymatic assay was performed in a 384-well polypropylene plate in Dulbecco's PBS buffer in a final assay volume of 20 μL. […] The NAD+ and ADPR concentrations were analyzed by a RapidFire High Throughput Mass Spectrometry System (Agilent Technologies, Santa Clara, CA) using an API4000 triple quadrupole mass spectrometer (AB Sciex Framingham, MA).

SARM1, sequence (Q6SZW1 other isoform, or with tags, fused parts or gaps): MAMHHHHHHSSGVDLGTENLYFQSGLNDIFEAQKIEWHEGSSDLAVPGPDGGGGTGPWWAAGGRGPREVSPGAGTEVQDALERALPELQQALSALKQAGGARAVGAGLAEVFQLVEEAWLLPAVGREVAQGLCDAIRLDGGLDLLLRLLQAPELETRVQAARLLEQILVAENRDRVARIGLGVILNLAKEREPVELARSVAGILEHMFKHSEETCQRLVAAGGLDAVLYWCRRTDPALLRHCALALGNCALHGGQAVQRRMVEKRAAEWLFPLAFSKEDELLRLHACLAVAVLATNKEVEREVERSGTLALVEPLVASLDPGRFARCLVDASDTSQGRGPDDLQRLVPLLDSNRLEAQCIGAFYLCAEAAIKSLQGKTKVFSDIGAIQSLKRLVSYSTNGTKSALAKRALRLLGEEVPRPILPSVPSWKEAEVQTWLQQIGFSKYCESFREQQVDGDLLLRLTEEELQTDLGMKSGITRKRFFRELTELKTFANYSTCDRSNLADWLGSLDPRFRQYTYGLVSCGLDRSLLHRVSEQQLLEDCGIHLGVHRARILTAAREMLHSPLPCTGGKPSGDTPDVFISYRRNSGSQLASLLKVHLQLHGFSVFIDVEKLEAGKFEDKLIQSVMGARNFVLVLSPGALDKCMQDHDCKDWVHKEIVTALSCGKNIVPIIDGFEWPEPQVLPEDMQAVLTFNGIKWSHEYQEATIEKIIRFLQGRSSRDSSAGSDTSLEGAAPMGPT

| IC50 | SMILES |
| --- | --- |
| 101 to 500 nM | Clc1ccc(CCc2n[nH]c3cc(-c4ccncc4)ccc23)cc1 [Compound I-1] |
| 101 to 500 nM | Clc1ccc(CCc2n[nH]c3cc(-c4ccncc4)ccc23)cn1 [Compound I-2] |

— US20240051939A1, “BENZOPYRAZOLE INHIBITORS OF SARM1” (Disarm Therapeutics, Inc., priority 2020, published 2024)
